Measured values taken from patent US20260199316A1, “SOLID DISPERSION, PREPARATION METHOD THEREFOR, AND USE THEREOF” (HANGZHOU GLUBIO PHARMACEUTICAL CO., LTD, priority 2022, published 2026).
Converted amounts (≈) assume the structure as drawn. Values belong to the molecule of their own block, whether it stands above or below them.

Legend:
[1] = Solubility of rapid solvent evaporation products in FaSSIF; type: physicochemical; settings: fassif, thermodynamic from solid
Method: About 10 mg of the API control of the compound of formula A and 40 mg of the polymer carrier were transferred to 1 mL of DCM:EtOH=9:1 (v/v) to prepare a solution with 20% drug loading. The resulting clear solution was rapidly evaporated at 80° C. until there was no liquid to prepare a solid dispersion. The API control of the compound of formula A was also treated separately in the same manner.

[2] = Redispersion solubility test of solid dispersions (SGF, then SGF + 2 times volume FaSSIF); type: physicochemical; settings: Concentration 1 mg/mL
Method: […] After stirring at 37° C. for 0.25 h and 0.5 h at 500 rpm, about 200 μL of the suspension was centrifuged at 14,000 rpm for 5 min, and the supernatant was diluted by 6 times with diluent for HPLC analysis. After sampling at 0.5 h, 2 times the volume of SGF of FaSSIF was immediately added to the suspension and the mixture was stirred for another 0.25 h, 0.5 h and 1.5 h, and then sampled for HPLC analysis and pH testing.

[3] = In vivo pharmacokinetic study of solid dispersions; set-up: species or system Sprague Dawley (SD) rats; settings: male SD rats, intragastric 300 mg/kg (as compound of formula A), plasma
Method: According to Table 16, three solid dispersions, namely, formulation of API+Soluplus, formulation of API+PVP VA64 and formulation of API+HPC SSL, were selected to conduct in vivo pharmacokinetic tests with the corresponding amorphous form of API to study the pharmacokinetic characteristics of solid dispersions with different formulations in animals.
Method: solid dispersions with different formulations were evaluated with the pharmacokinetic characteristics of male Sprague Dawley (SD) rats after intragastric administration.
Materials: SD Rats (Male, 200-250 g, 6-8 Weeks Old, Zhejiang Weitong Lihua).
Steps: the solid dispersion with the formulation of Table 16 was tested by intragastric administration of 300 mg/kg (dosage calculated according to the compound of formula A) to SD rats, and the solvent was 25 mM citrate buffer pH3 containing 5% Tween 80. The animals were free to eat and drink water. Blood was collected from the jugular vein 15 min (0.25 h), 30 min (0.5 h), 60 min (1 h), 2 h, 4 h, 6 h, 8 h and 24 h after administration. Whole blood was collected in an anticoagulant tube containing EDTA-K2, and after thorough mixing, it was centrifuged at 4° C. and 4000 g for 5 minutes to separate plasma. Plasma samples were stored at −75±15° C. until the blood concentration of the compound of formula A was determined by LC-MS/MS. The relevant pharmacokinetic parameters were calculated using the non-compartmental model and linear/log trapezoidal method of Phoenix WinNonlin 6.1.

[4] = Approximate solubility test in solvents; type: physicochemical; settings: organic solvent or mixture, thermodynamic from solid
Method: About 5 mg of the API control of Formula A was weighed into a 1.5 mL glass vial, and then a certain amount of different solvents (as shown in Table 1) were gradually added until the solid dissolved or the total volume reached 1 mL. The compound of formula A has a high approximate solubility in a mixed solvent of DCM and MeOH.
Different solvents have different solubility for the compound of formula A, considering the stability factor, DCM:EtOH (9:1, v/v) and acetone:water (9:1, v/v) may be used as solvent systems for the preparation of solid dispersions of the compound of formula A.

[5] = Chirality stability in solvents (other studies); type: physicochemical

solubility at 0.25 h ([1]; 0.25 h): 470 µg/mL (≈ 1010 µM)
solubility at 0.5 h ([1]; 0.5 h): 490 µg/mL (≈ 1050 µM)
solubility at 0.75 h ([1]; 0.75 h): 600 µg/mL (≈ 1290 µM)
solubility at 1 h ([1]; 1 h): 570 µg/mL (≈ 1220 µM)
solubility at 2 h ([1]; 2 h): 450 µg/mL (≈ 964 µM)
End point pH [2]: 6.55
solubility at 0.75 h ([2]; SGF + 2 times volume FaSSIF, fassif, thermodynamic from solid, 37° C., read-out: Redispersion solubility, Step 2: SGF + 2 times volume FaSSIF (0.75 hr)): 460 µg/mL
solubility at 1 h ([2]; SGF + 2 times volume FaSSIF, fassif, thermodynamic from solid, 37° C., read-out: Redispersion solubility, Step 2: SGF + 2 times volume FaSSIF (1.0 hr)): 440 µg/mL
solubility at 2 h ([2]; SGF + 2 times volume FaSSIF, pH 6.55, fassif, thermodynamic from solid, 37° C., read-out: Redispersion solubility, Step 2: SGF + 2 times volume FaSSIF (2.0 hr)): 270 µg/mL
solubility at 0.25 h ([2]; simulated gastric fluid (SGF), simulated gastric fluid, thermodynamic from solid, 37° C., read-out: Redispersion solubility, Step 1: SGF (0.25 hr)): 960 µg/mL
solubility at 0.5 h ([2]; simulated gastric fluid (SGF), simulated gastric fluid, thermodynamic from solid, 37° C., read-out: Redispersion solubility, Step 1: SGF (0.5 hr)): 980 µg/mL
AUC(0-inf) ([3]; Sprague Dawley, rat, po): 112 µg·h/mL
AUC(0-t) ([3]; Sprague Dawley, rat, po): 111 µg·h/mL
Cmax ([3]; Sprague Dawley, rat, po): 18700 ng/mL
Tmax ([3]; Sprague Dawley, rat, po): 1 h
half-life ([3]; Sprague Dawley, rat, po): 4.06 h
AUClast/D [3]: 369 ng·kg·h/mL/mg
Compound: O=C1CC[C@H](N2Cc3cc(C(=O)N[C@H](c4ccc(Cl)cn4)C4CCC4)ccc3C2=O)C(=O)N1 [Amorphous form of API, N—((S)-(5-chloropyridin-2-yl)(cyclobutyl)methyl)-2-((S)-2,6-dioxopiperidin-3-yl)-1-oxoisoindoline-5-carboxamide]

solubility ([4]; solvent ACN): < 5000 µg/mL
solubility ([4]; solvent Acetone): < 5000 µg/mL
solubility ([4]; solvent Acetone:ACN (1:1)): < 5000 µg/mL
solubility ([4]; solvent Acetone:DCM (1:1)): < 5000 µg/mL
solubility ([4]; solvent Acetone:DCM (4:1)): < 5000 µg/mL
solubility ([4]; solvent Acetone:THF (1:1)): < 5000 µg/mL
solubility ([4]; solvent DCM): < 5000 µg/mL
solubility ([4]; solvent DCM:MeOH (1:1)): 25000 to 50000 µg/mL
solubility ([4]; solvent DCM:MeOH (2:1)): 50000 to 100000 µg/mL
solubility ([4]; solvent DCM:MeOH (4:1)): 50000 to 100000 µg/mL
solubility ([4]; solvent DCM:MeOH (5:1)): 50000 to 100000 µg/mL
solubility ([4]; solvent DCM:MeOH (7:1)): 50000 to 100000 µg/mL
solubility ([4]; solvent DCM:MeOH (9:1)): 25000 to 50000 µg/mL
solubility ([4]; solvent DCM:MeOH (99:1)): < 5000 µg/mL
solubility ([4]; solvent DCM:THF (1:1)): < 5000 µg/mL
solubility ([4]; solvent DCM:THF (4:1)): < 5000 µg/mL
solubility ([4]; solvent Ethyl acetate): < 5000 µg/mL
solubility ([4]; solvent MeOH): < 5000 µg/mL
solubility ([4]; solvent THF): < 5000 µg/mL
solubility ([4]; v/v), solvent Acetone:Water (9:1)): 15000 to 50000 µg/mL
solubility ([4]; v/v), solvent DCM:EtOH (9:1)): 5000 to 15000 µg/mL
Chirality stability ([5]; in MeOH): rapidly racemized
Chirality stability ([5]; in acetone and ethanol): better chirality stability
Compound: O=C1CC[C@H](N2Cc3cc(C(=O)N[C@H](c4ccc(Cl)cn4)C4CCC4)ccc3C2=O)C(=O)N1 [compound of formula A, N—((S)-(5-chloropyridin-2-yl)(cyclobutyl)methyl)-2-((S)-2,6-dioxopiperidin-3-yl)-1-oxoisoindoline-5-carboxamide]
